From ChEMBL document CHEMBL1128656, “5,6,7,8-Tetrahydroquinolones as antagonists at the glycine site of the NMDA receptor” (Bioorg Med Chem Lett, 1995)
One block for each compound: values may come before it. The source made the active and inactive calls. The calls are words filed in the database; no cut-off is given here.

Experiments:
[1] = target: Glutamate receptor ionotropic, NMDA 1 (Rattus norvegicus, UniProt P35439); experiment: Compound was evaluated for its ability to displace [3H]-L-689,560 from rat cortical membrane
Mus musculus [2] = species on record: Mus musculus; experiment: Effective dose required to protect against audiogenic seizure in DBA/2 mice; format: functional
[3] = target: Glutamate receptor ionotropic, NMDA 1 (Rattus norvegicus) (UniProt P35439); experiment: Ability of compound to antagonize NMDA induced responses in rat cortical slice; format: functional
Mus musculus [4] = experiment: Effective dose required to protect against audiogenic seizure in DBA/2 mice at 10 mg/kg; number protected / number tested is 1/8; format: functional, organism-based; design: dose 10 mg/kg
Mus musculus [5] = experiment: Effective dose required to protect against audiogenic seizure in DBA/2 mice at 20 mg/kg; number protected / number tested is 8/8; format: functional, organism-based; design: dose 20 mg/kg
Mus musculus [6] = experiment: Effective dose required to protect against audiogenic seizure in DBA/2 mice at 10 mg/kg; number protected / number tested is 4/8; format: functional, organism-based; design: dose 10 mg/kg

- Kb [3]: 3.7 µM
Structure (SMILES): CC1CCc2c(nc(O)c(-c3ccccc3)c2O)C1 (stereo not drawn)
- ED50 (Mus musculus [4]): inactive
- ED50 (Mus musculus [5]): Active

- Kb [3]: 0.35 µM
Structure (SMILES): CC1CCc2c(nc(O)c(-c3cccc(Oc4ccccc4)c3)c2O)C1 (stereo not drawn)
- ED50 (Mus musculus [4]): inactive

- IC50 [1]: 0.057 µM
Structure (SMILES): CC1CCc2c([nH]c(=O)c(-c3cccc(Oc4ccccc4)c3)c2O)C1 (stereo not drawn)

More lines, now with the values behind:

Structure (SMILES): CC1CCc2c([nH]c(=O)c(-c3ccccc3)c2O)C1 (stereo not drawn)
- IC50 [1]: 3.5 µM

Structure (SMILES): Cc1ccc2c(O)c(-c3cccc(Oc4ccccc4)c3)c(=O)[nH]c2c1
- IC50 [1]: 0.02 µM

Structure (SMILES): O=c1[nH]c2cc(Cl)ccc2c(O)c1-c1ccccc1
- ED50 (Mus musculus [2]): 4.5 mg/kg

Structure (SMILES): O=c1[nH]c2cc(Cl)ccc2c(O)c1-c1cccc(Oc2ccccc2)c1
- ED50 (Mus musculus [2]): 0.88 mg/kg

Structure (SMILES): CCCc1nc(O)c(-c2ccccc2)c(O)c1C
- IC50 [1]: ~100 µM

Structure (SMILES): Cc1ccc2c(O)c(-c3cccc(Oc4ccccc4)c3)c(O)nc2c1
- ED50 (Mus musculus [6]): Weak activity

Structure (SMILES): Cc1[nH]c(=O)c(-c2ccccc2)c(O)c1C
- IC50 [1]: > 100 µM
